The source of these data is patent US20040081626A1, “Inhalation particles” (priority 1999, published 2004).

Common to all, as to assay type: physicochemical
The nature of data set [1]: Particle crystallinity and polymorphism analysis by X-ray powder diffraction. As to conditions: for FWHMav: broadening of diffraction maxima positioned at 11.3° and 18.4°. As for the experimental part:
Crystallinity and polymorphism of the sample was studied by X-ray powder diffraction (Diffractometer D500, Siemens GmbH, Karlsruhe, Germany). A copper target X-ray (wavelength 0.1541 nm) tube was operated with the power of 40 kV×40 mA. For x-ray powder diffraction analysis, 10 mg of the sample was mounted to a specific cylindrical single crystal mini sample stage, which has a diameter of 10 mm and height of approximately 1 mm. […] The patterns obtained were identical. There were not significant differences in peak positions and additional peaks were not observed. […] The relative degree crystallinity of the powder was also determined based on the x-ray powder diffraction patterns. It is noticed that the powder was well crystallised. The maximum intensities were sharp and well above background intensities. The estimation was based on the broadening of the diffraction maxima (FWHM-values) positioned at 11.3° and 18.4°. It is seen that the relative degree of crystallinity of the powder is 21% higher than that of the reference powder.

Data set [2] is described as follows: Particle size analysis by electrical low pressure impactor (ELPI), measured gravimetrically. The following applies: mass size distribution, dilution ratio 1:10. As for the experimental part: Referring now to FIG. 1b, the particle size distribution was measured by an electrical low pressure impactor (12) (ELPI) connected to a vacuum (13). The particles exiting the tubular tube were passed into a diluter (10), with a dilution ratio of 1:10, before entering the ELPI. Exhaust gas exit (11) was arranged in the diluter. To minimize temperature gradient, and thus to reduce the moisture condensation, the diluter, the line to the diluter and the gas line into the diluter were layered with heating elements, which were kept at a temperature higher than that of the solution dew point. […] It is shown that a narrow size distribution within the range of aerodynamic particle size of interest, i.e. at around 1-5 μm, was obtained.

Data set [3] in a line: Particle shape and surface structure by FE-SEM. The following applies: 2 kV. The text has this:
Referring now to FIG. 1c, individual particles were collected on the surface of a holey carbon film TEM grid (14) connected to a vacuum (15) after particle collection. The morphology of the particles were then imaged using a field emission low voltage scanning electron microscope (FE-SEM) operated at 2 kV acceleration voltage. FIGS. 4a to 4d are scanning electron microscope images of the powder (magnification ×20000 in FIGS. 4b, 4c, 4d and ×23000 in FIG. 4a).

Molecules are shown by their SMILES.

In data set [1], `CCC(=O)OCC(=O)[C@@]1(OC(=O)CC)[C@@H](C)C[C@H]2[C@@H]3CCC4=CC(=O)C=C[C@]4(C)[C@@]3(Cl)[C@@H](O)C[C@@]21C` [Obtained beclomethasone dipropionate powder] yielded an FWHMav of 0.26 °. In addition, the polymorphism result in data set [1] (diffraction pattern compared to reference beclomethasone dipropionate powder) is reported as “polymorphic crystal form class I”. For the same compound, the “aerodynamic particle size distribution” value in data set [2] was 1-5 μm. Moreover, in data set [3], the particle diameter is 2-3 μm; the “particle shape and surface structure” value is “spherical with rough surfaces”.
In the case of `CCC(=O)OCC(=O)[C@@]1(OC(=O)CC)[C@@H](C)C[C@H]2[C@@H]3CCC4=CC(=O)C=C[C@]4(C)[C@@]3(Cl)[C@@H](O)C[C@@]21C` [Reference powder, beclomethasone dipropionate, reference compound], the FWHMav in data set [1] is recorded as 0.33 °.
